{"source": "patent US20090088371A1", "about": "“COMBINATION THERAPY WITH SYK KINASE INHIBITOR” (Rigel Pharmaceuticals, Inc., priority 2007, published 2009)", "key": {"C57BL/6 mice": {"system": "C57BL/6 mice", "assay": "Anti-CD41 antibody-induced thrombocytopenia in C57BL/6 mice, platelet counts (Examples 1 and 3, FIG. 1)", "format": "in vivo, mouse", "settings": "for Platelet count versus mice treated with CD41 antibody alone: first dose 30 minutes prior to platelet-depleting antibody, 24 h", "protocol": "On Day 1 of each study, mice were rendered thrombocytopenic by injection with rat anti-mouse CD41 antibody (IgG1, Clone MWReg30) by the intraperitoneal (IP) route. The platelet depleting antibody (rat anti-mouse GPIIb, also referred to as anti-integrin αIIb or anti-CD41) was administered […] treatment with Compound I on Day 1. Mice in control groups either received nothing (naïve), saline only, or an isotype-matched irrelevant control antibody (nonspecific rat anti-mouse IgG1, Clone R3-34, BD, San Jose, Calif.).\nMice received vehicle or Compound 1 at various dose levels (0, 20, 40, or 80 mg/kg, PO, 5 mL/kg) 30 minutes prior to the platelet depleting antibody, then again 8 h, 16 h, and 23 h after induction of thrombocytopenia. At 24 h after administration of the anti-CD41 platelet-depleting antibody, blood was harvested from all groups by cardiocentesis to assess the platelet counts or drug levels in the plasma. An aliquot from each sample was transferred to a plasma separator tube and the separated plasma was stored at −80° C. for analysis. Blood was placed indirectly on ice for delivery. Platelet enumeration was performed using Bayer Advia 120 Bayer Advia 120 hematology system (Bayer, Tarrytown, N.Y.) by Quality Clinical Laboratories (QCL, Mountain View, Calif.).\nSystemic drug exposures were determined at sacrifice with the final dose being given on the evening of Day 1 (8 h prior to blood collection) or on the morning of Day 2 (1 h prior to blood collection). Satellite animals treated with Compound 1 and not receiving platelet-depleting antibody were added to obtain a more complete PK profile.\nSignificant differences between vehicle and Compound I-treated groups were determined statistically using the GraphPad Prism 4.0® software package, unless otherwise stated. In general, Prism 4.0® uses the standard calculations as detailed in D. G. Altman, Practical Statistics for Medical Research, 1991, Chapman and Hall. Platelet count data was analyzed using Kruskal Wallis Nonparametric test with Dunn's multiple group post-hoc test to compare the rank sums, unless otherwise noted.\nIn FIG. 1, each data point represents platelet counts for an individual mouse administered a single IP injection of 5 μg of CD41 platelet depleting antibody (n=11-12 per group). Mice were bled 24 hours post antibody administration and platelet counts were performed using Bayer Advia 120 analyzer. Mice were given vehicle or indicated doses of Compound 1. Platelet-depleting antibody was administered 30 minutes after the first Compound 1 or vehicle dose on Day 1."}, "CD-1 mice": {"system": "CD-1 mice", "assay": "Antibody-mediated thrombocytopenia in CD-1 mice, platelet counts by flow cytometry (Examples 2 and 4, FIG. 2, Table 1)", "format": "in vivo, mouse", "settings": "for Individual Animal Platelet Count / Platelet Count Mean: 24 hours following anti-αIIb treatment; for Individual Animal Platelet Count: one value per animal; for Platelet Count Mean: n=6", "protocol": "CD-1 mice, approximately 10 weeks of age, were obtained from Charles River (Montreal, PQ, Canada). All mice, with the exception of the naïve group, were injected with 2 μg rat anti-mouse GPIIb (also referred to as anti-integrin αIIb or anti-CD41) antibody (specific for GPIIb, clone MWReg30, rat IgG1, κ, PharMingen, Missassuaga, ON, Canada) in 200 μL PBS on Day 1. Platelets were enumerated on Day 2 (24 hours following injection of anti-platelet antibody).\nDuring the 3 day experiment (Day O— Day 2), Compound I-treated mice were given the indicated doses of Compound 1 by oral gavage once on Day 0, twice on Day 1 and once on Day 2. Control animals were given an equal volume of vehicle. For the IVIg group, mice were injected intraperitoneally (IP) with 2 g/kg Gamunex IVIg (Bayer, Elkhart, Ill.) once on Day 0. Two concentrations of Compound 1 (3.08 and 4.94 mg/mL) were formulated with 0.1% CMC Na-0.1% Methylparaben-0.02% Propylparaben-H2O. One day prior to platelet depletion, treatment began. Mice were treated orally twice daily (bid.) with Compound 1 (30.8 or 49.4 mg/kg of body weight per dose, n=6) at a dose volume of 10 mL/kg. IVIg (2 g/kg) was used as a reference agent and was administered IP as described previously (Crow et al., 2003).\nTwo hours following the last treatment of Compound 1 on Day 2, all mice were bled via the saphenous vein; 50 μL of blood was collected into 450 μL PBS/1% EDTA. The blood was further diluted to a final dilution of 1/12,000 in PBS/1% EDTA. Platelets were enumerated by flow cytometry according to Crow et al., 2001. Briefly, the samples were acquired for 2 minutes on a flow-rate-calibrated FACScan flow cytometer (Becton-Dickinson, San Jose, Calif.), using forward scatter (FSC) versus side scatter (SSC) to gate platelets.\nAll values in the text and figures are expressed as mean±standard error of the mean (SEM) for n=6 mice/group unless noted otherwise, and n represents the number of mice. Differences between treatment and control groups were compared using the 2-tailed Student's t-test using GraphPad Prism Inc., software ver. 4.0 (San Diego, Calif., USA).\nOn Day 0, mice were pre-treated with nothing (Nil), 0.25 mL Vehicle twice (8 hrs apart) or the indicated doses of Compound 1 (in 0.25 mL vehicle) or 2 g/kg IVIg. On Day 1, the above treatments were repeated except for IVIg. All mice also received 2 μg anti-platelet antibody on Day 1. On Day 2, all mice were bled for platelet enumeration by flow cytometry as described. n=6 mice per group. Data are expressed as mean±SEM."}}, "note": "“And” between values parts separate entries of the source, which are not always exact repeats. Identical values can stand only once. “Also recorded” adds a separate entry of the source.", "data": [{"smiles": "COc1cc(Nc2ncc(F)c(Nc3ccc4c(n3)N(COP(=O)(O)O)C(=O)C(C)(C)O4)n2)cc(OC)c1OC", "note": "[Compound 1]", "values": [{"measurement": "Platelet count versus the 80 mg/kg group", "setting": "C57BL/6 mice; 20 mg/kg PO with platelet depleting antibody, p<0.01", "result": "significantly lower"}, {"measurement": "Platelet count versus mice treated with CD41 antibody alone", "setting": "C57BL/6 mice; 40 mg/kg PO, p<0.05", "result": "significantly higher platelet count"}, {"measurement": "Platelet count versus mice treated with CD41 antibody alone", "setting": "C57BL/6 mice; 80 mg/kg PO, p<0.001", "result": "significantly higher platelet count"}, {"measurement": "Dose dependence of inhibition of platelet depletion", "setting": "C57BL/6 mice; 20, 40, 80 mg/kg PO, C57BL/6 mice", "result": "dose-dependent inhibition of platelet depletion"}, {"measurement": "Inhibition of platelet depletion compared with vehicle alone", "setting": "CD-1 mice; 30.8 mg/kg group, p=0.001, Day 2", "result": "highly significant"}, {"measurement": "Inhibition of platelet depletion compared with vehicle alone", "setting": "CD-1 mice; 49.4 mg/kg group, p=0.008, Day 2", "result": "highly significant"}, {"measurement": "Dose dependence of the effect on platelet counts", "setting": "CD-1 mice; 30.8 versus 49.4 mg/kg, difference not significant (p=0.9)", "result": "did not appear to be dose-dependent"}, {"measurement": "Individual Animal Platelet Count", "setting": "CD-1 mice; Compound 1 30.8 mg/kg oral gavage, CD-1 mice, 30.8 mg/kg", "result": "3.92e+11 L⁻¹ and 3.98e+11 L⁻¹ and 4.57e+11 L⁻¹ and 5.84e+11 L⁻¹ and 6.02e+11 L⁻¹ and 6.79e+11 L⁻¹"}, {"measurement": "Platelet Count Mean", "setting": "CD-1 mice; Compound 1 30.8 mg/kg oral gavage", "result": "5.19e+11", "unit": "L⁻¹"}, {"measurement": "Individual Animal Platelet Count", "setting": "CD-1 mice; Compound 1 49.4 mg/kg oral gavage, CD-1 mice, 49.4 mg/kg", "result": "4.11e+11 L⁻¹ and 4.37e+11 L⁻¹ and 4.33e+11 L⁻¹ and 4.98e+11 L⁻¹ and 9.31e+11 L⁻¹ and 5.1e+11 L⁻¹"}, {"measurement": "Platelet Count Mean", "setting": "CD-1 mice; Compound 1 49.4 mg/kg oral gavage", "result": "5.37e+11", "unit": "L⁻¹"}, {"measurement": "Effect on platelet depletion by anti-platelet antibody", "setting": "CD-1 mice; Compound 1 treatment prior to and following CD41 platelet depleting antibody, CD-1 mice, Day 2", "result": "reduced depletion of platelets; also recorded: inhibited the reduction in platelet count"}]}]}
